Tests used:
[1] = Comparison of cooling attributes of (−)-menthol and racemic menthol in toothpaste (Crest Cavity formulation); assay type: in vivo
Text: The following data helps support the use of racemic menthol to reduce costs of mint flavor compositions herein described. From internal unpublished research, Table B compares replacing (−)-menthol with a racemic menthol in a 1:1 in a toothpaste formulation. Such a direct replacement is not preferred given the reduced cooling profile and olfactory differences; however, a portion of L-menthol is preferably replaced by racemic-menthol to gain cost efficiency while minimizing impact to the overall mint flavor profiles.
This value represents the concentration of a coolant where 50% of its maximal cooling is observed.

[2] = Expert sensory testing of racemic menthol vs (−)-menthol in toothpaste (CREST Cavity) with standard spearmint flavor; assay type: in vivo
Description: In separate, unpublished internal experiments, perceptual experiences of racemic menthol are quantified via expert sensory testing. The use of a standard spearmint flavor (minimizing extra menthol contribution) compared racemic menthol to (−)-menthol in a toothpaste formulation (CREST Cavity). There are several sensory observations taken from these experiments. […] These aromatic notes appear during brushing and disappear after 5-10 minutes post expectoration and are more pronounced as concentrations increase.

## CC1CCC(C(C)C)C(O)C1 (racemic) [Racemic Menthol]
[1]
  Potency compared to L-Menthol: ~0.65-0.7x
  Time Point at Maximum Cooling: ~1 min
[1]; 60 = greatest amount of cooling, 0 = least
  Maximum Cooling (0-60 scale): 35
[1]; concentration of coolant where 50% of maximal cooling is observed
  EC 50: 1,250 to 1,500 parts per million
[1]; cooling
  Maximum Longevity: Up to 20 minutes
[2]
  less potent than (−)-menthol for cooling: 25-30%

From patent US20250031733A1, “Mint Flavor Compositions” (The Procter & Gamble Company, priority 2020, published 2025)
